Test results as given in US20260070905A1, “Derivatives of Imidazo[1,2-A]Pyridine with Anti-Inflammatory Activity” (Universitat de Veléncia, priority 2023, published 2026).
Entries after “also recorded” stand apart in the source; their conditions may differ.

How the values were obtained:
[1] = tested on: Caco-2 cells; assay: Viability / MTT cytotoxicity assay on Caco-2 intestinal epithelial cells; assay type: cell-based; conditions: Caco-2 epithelial cells, all concentrations used (1, 5 and 10 μM), 24 h (FIG. 3A)
Experimental: To quantify the percentage of cells that remained viable in each of the experiments, THP-1-XBlue™-CD14 macrophages (InvivoGen, 8 to 13 passages) were evaluated, derived from human THP-1 monocytes, which stably express the gene for the alkaline phosphatase enzyme inducible by the NF-kB and AP-1 promoters. Human intestinal epithelial Caco-2 cells (ATCC®, HTB-37TM, 10 to 12 passages) were also evaluated. To do this, Trypan blue (Gibco) was used as an exclusion stain. This dye penetrates cells with damaged membranes (a sign of cell death) and stains their cytoplasm dark blue. To do this, the cell suspensions tested were centrifuged at 500×g (5 min at 24° C.), the cell sediments were resuspended in 0.1 mL of PBS, and then 10 μL were mixed with 10 μL of trypan blue (0.4%) filtered through 0.22 μm. The percentage of live cells was determined in 10 μL of the above mixture using a chamber and a Countess™ cell counter (Invitrogen).
In this second cytotoxicity assessment on THP-1-XBlue-CD14 and Caco-2, the technique previously described was used with the MTT dye (3-(4,5-dimethylthiazol-2-yl)-2,5-diphenyltetrazolium bromide) (Biotium).
To do this, both types of cells were seeded in 96-well plates under conditions identical to those used in the anti-inflammation assays. The cells were then washed with PBS and treated with different compounds: 1) PBS (10 μL) (positive growth control, vehicle); 2) 20% DMSO (negative control, as high doses of this compound are cytotoxic); 3) different concentrations of the compounds PS1801 and PS1906 (1, 5, and 10 μM). The plates were incubated for 24 hours at 37° C., 5% CO2, and then 10 μL of MTT was added to each well and the plate was incubated for 4 hours at 37° C., 5% CO2. The formazan crystals formed were dissolved in 180 μL of DMSO, and the plate was incubated for 20 minutes with shaking at room temperature. The absorbance was measured in each well at 595 nm (problem) and 655 nm (background), following the manufacturer's instructions, using an iMark™ Microplate Absorbance Reader (Bio-Rad). The samples were analyzed in triplicate.

[2] = tested on: acute lung injury (ALI) induced by LPS; assay: Murine model of acute lung injury (ALI) induced by intratracheal LPS; assay type: in vivo, mouse (C57BL/6J-OlaHsd); conditions: mice
Text: In order to evaluate the potential anti-inflammatory effect of the PS1906 molecule in an in vivo model, we selected the ALI model induced by tracheal instillation of lipopolysaccharide (LPS), which has been widely described in the literature and previously performed by members of the research group (Clemente-Moragón et al., 2020). This murine model is a model of acute lung inflammation or damage associated with a long-term fibrotic period, so it can be used to study both inflammatory lung diseases and pulmonary fibrotic processes.
Mice of the C57BL/6J-OlaHsd strain were chosen for this model. Adult mice were kept in pathogen-free conditions in a temperature-controlled room with a 12-hour light-dark cycle. Food and water were available ad libitum. The mice were anesthetized intraperitoneally with an injection of an anesthetic cocktail containing atropine sulfate (1 mg/kg; B. Braun, 1 mg/mL), xylazine hydrochloride (20 mg/kg; Rompun® Bayer, 20 mg/mL), and ketamine (100 mg/kg; Anesketin Dechra, 100 mg/mL). All experimental and other scientific procedures involving animals complied with EU Directive 2010/63EU and Recommendation 2007/526/EC, enacted into Spanish law under Real Decreto 53/2013. Animal protocols were approved by local ethics committees and the Animal Protection Area of the Autonomous Community of Madrid.
In vitro studies were taken into account when selecting the doses to be administered, with a concentration of 10 μM being considered the maximum effective (non-toxic) concentration. Assuming an approximate blood volume of 2 mL for a mouse weighing about 30 g, and taking into account a loss due to distribution, metabolism, or secretion of 50% of the products, we calculated dose 1 (D1) and selected dose 2 (D2) as twice the first. Thus, taking into account the respective molecular weights, the corresponding doses for the PS1906 product were 156 μg/kg (D1) and 312 μg/kg (D2). Physiological saline was used as a diluent for the preparation of the different doses. All doses were prepared to administer the same volume in the mouse. The doses were administered intravenously with the animal properly anesthetized moments before the induction of pulmonary inflammation. […]
After 24 h, the animals were sacrificed and the lungs were washed with 1.5 mL of cold PBS through a tracheal catheter (Introcan Safety 22G, Braun), and a total of 1 mL of bronchoalveolar lavage fluid was extracted from each mouse for the detection of neutrophils and lymphocytes by flow cytometry. […] The data were analyzed with FlowJo software (Ashland). […]

[3] = molecular target: T1, recombinant Alk5 kinase (TGFβRI) (Homo sapiens, UniProt P36897); assay: In vitro Alk5 kinase inhibition (Kinase-Glo luminescent kinase assay); assay type: biochemical; conditions: for Alk5 kinase inhibition: in vitro kinase assay (FIG. 1); for % kinase activity reduction: values refer to a 100% reduction in activity of the inhibition control GW788388 Hydrate, concentrations of 5 and 10 μM evaluated, ATP 100 μM, 2 h
T1 construct: purchased Abcam ab105908
T1 sequence (P36897 34-503): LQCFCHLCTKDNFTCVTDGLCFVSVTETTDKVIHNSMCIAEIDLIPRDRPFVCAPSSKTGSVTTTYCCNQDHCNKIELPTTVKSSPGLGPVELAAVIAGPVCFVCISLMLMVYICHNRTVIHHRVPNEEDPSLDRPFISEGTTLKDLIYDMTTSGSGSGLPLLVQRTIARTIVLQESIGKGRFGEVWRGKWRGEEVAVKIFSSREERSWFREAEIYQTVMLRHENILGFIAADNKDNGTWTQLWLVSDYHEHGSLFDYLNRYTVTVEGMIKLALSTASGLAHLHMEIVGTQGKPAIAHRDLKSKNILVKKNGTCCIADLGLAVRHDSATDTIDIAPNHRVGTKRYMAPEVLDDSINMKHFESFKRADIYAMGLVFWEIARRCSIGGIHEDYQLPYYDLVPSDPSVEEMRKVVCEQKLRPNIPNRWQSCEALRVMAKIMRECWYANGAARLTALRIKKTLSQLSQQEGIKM
Experimental: For this purpose, recombinant Alk5 (Abcam, ref ab105908) was used, and kinase activity was determined using the commercial Kinase-Glo® Luminiscent kinase assay platform (Promega, ref. TB372).
For this purpose, commercially available recombinant Alk5 protein (Abcam, ref ab105908) was used, as well as the commercial Kinase-Glo® Luminiscent kinase assay platform (Promega, ref TB372), which determines the adenosine triphosphate (ATP) not consumed in the phosphorylation reaction by its conjugation to luciferin in a reaction catalyzed by the luciferase enzyme in the presence of Mg^2+. The luminescence observed is inversely proportional to kinase activity.
From this stock solution, dilutions were made in kinase buffer (Tris-HCl pH 7.5 40 mM; MgCl2 20 mM; bovine serum albumin (BSA) 0.1 mg/mL) of 10 μM and concentrations of 5 and 10 μM were evaluated.
Incubation was carried out for 2 hours at room temperature with stirring and in darkness, following the instructions for the commercial system.
After this time, 50 μL of commercial substrate (diluted 1:8) was added, left to stir for 10 minutes at room temperature, and the luminescence was read using a Luminoskan Ascent instrument (Thermo Scientific, Waltham, USA).
All reactions were performed in duplicate.

[4] = tested on: THP-1-XBlue™-CD14 macrophages; assay: MTT cytotoxicity assay on THP-1-XBlue-CD14 macrophages; assay type: cell-based; conditions: THP-1 macrophages, all concentrations used (1, 5 and 10 μM), 24 h (FIG. 2, FIG. 3B)
Text: To quantify the percentage of cells that remained viable in each of the experiments, THP-1-XBlue™-CD14 macrophages (InvivoGen, 8 to 13 passages), derived from human THP-1 monocytes, which stably express the gene for the alkaline phosphatase enzyme inducible by the NF-kB and AP-1 promoters.
The MTT dye (3-(4,5-dimethylthiazol-2-yl)-2,5-diphenyltetrazolium bromide) (Biotium) was used. This assay is based on the cleavage of the yellow MTT tetrazolium salt to form purple formazan crystals, produced by metabolically active cells. Formazan is solubilized with DMSO and its concentration is determined by spectrophotometry; the optical density is proportional to the number of viable cells.
To do this, the cells were seeded in 96-well plates at a density of 3×10^5 cells/mL in RPMI 1640 medium (Gibco) supplemented with 10% FBS, penicillin, streptomycin (both at a concentration of 100 μg/mL, Sigma-Aldrich), and PMA (100 ng/mL) (Sigma-Aldrich), and were cultured at 37° C., 5% CO2 for 48 h. […] The absorbance was measured in each well at 595 nm (problem) and 655 nm (background), following the manufacturer's instructions, using an iMark™ Microplate Absorbance Reader (Bio-Rad). The samples were analyzed in triplicate. The percentage of viable cells was calculated using the following formula: […]

| Structure (SMILES) | cytotoxic effects (cell viability) [1] | ALI score (histopathological lung damage) ([2]; i.v. 156 μg/kg (D1) and 312 μg/kg (D2), LPS 10 mg/kg intratracheal, 24 h (FIG. 6A, 6B), listed as PS1906) | neutrophils in bronchoalveolar lavage fluid (flow cytometry) ([2]; i.v. 156 μg/kg (D1) and 312 μg/kg (D2), LPS 10 mg/kg intratracheal, 24 h (FIG. 6C)) | lymphocytes in bronchoalveolar lavage fluid (flow cytometry) ([2]; i.v. 156 μg/kg (D1) and 312 μg/kg (D2), LPS 10 mg/kg intratracheal, 24 h (FIG. 6D), not statistically significant) | total number of infiltrated cells in bronchoalveolar lavage fluid (flow cytometry) ([2]; i.v. D1 and D2, LPS intratracheal, 24 h) | Alk5 kinase inhibition [3] | % kinase activity reduction [3] | cytotoxic effects (cell viability) [4] |
| --- | --- | --- | --- | --- | --- | --- | --- | --- |
| c1ccc2oc(-c3ccn4ccnc4c3)cc2c1 [Compound 26, 7-(Benzofuran-2-yl)imidazo[1,2-a]pyridine] | no cytotoxic effects | significantly different from the group of sick mice treated with LPS; also recorded: positive effect | dose-dependent anti-inflammatory effect | dose-dependent anti-inflammatory effect | dose-dependent anti-inflammatory effect | one of those that showed the greatest inhibitory effect | 93.4% | – |
| O.O=C(NC1CCOCC1)c1ccc(-c2cc(-c3c[nH]nc3-c3ccccn3)ccn2)cc1 [GW788388, 4-{4-[3-(pyridin-2-yl)-1H-pyrazol-4-yl]-pyridin-2-yl}-N-(tetrahydro-2H-pyran-4-yl)benzamide hydrate, reference compound] | lacking cytotoxic activity | – | – | – | – | approximately 25% | – | lacking cytotoxic activity |
| Oc1ccc(-c2ccn3ccnc3c2)cc1 [Compound 12, 4-(Imidazo[1,2-a]pyridin-7-yl)phenol] | – | – | – | – | – | – | 87.5% | – |
| COc1ccc(-c2cn3ccc(-c4ccc(O)cc4)cc3n2)cc1 [Compound 16, 4-(2-(4-Methoxyphenyl)imidazo[1,2-a]pyridin-7-yl)phenol] | – | – | – | – | – | – | 75.4% | – |
| CCOC(=O)c1cc2cc(-c3cnc4ccccn34)ccc2[nH]1 [Compound 31, Ethyl 5-(imidazo[1,2-a]pyridin-3-yl)-1H-indole-2-carboxylate] | no cytotoxic effects | – | – | – | – | – | 79.1% | – |
